Measured values taken from patent publication US12605323B2, “Composition for inhibiting hair graying, and use thereof” (LG HOUSEHOLD & HEALTH CARE LTD., priority 2020, dated 2026).
Where no end group is shown, it is not given here.

How the values were obtained:
[1] = test system: Wnt/β-catenin signaling pathway (TCF/LEF Responsive Luciferase Reporter HEK293A cell line); experiment: Effect of enhancing Wnt/β-catenin signaling, TCF/LEF responsive luciferase reporter assay; assay type: cell-based; settings: 10 μg/mL, 24 hours, WRHEK293A cells, non-treated control = 100%
Method: To determine activation of the Wnt/β-catenin signaling pathway, TCF/LEF Responsive Luciferase Reporter HEK293A stabilized cell line (Wnt Reporter HEK293A cell; WRHEK293A) was used in this test. The stabilized cell line was maintained through the subculture using MEM (Corning, USA) and fetal bovine serum (Gibco BRL, Gaithersburg, MD, USA). To carry out a transcriptional activity test, 30,000 cells were seeded per well in a 96-well plate and cultured in an incubator at 37° C. for 24 hours. Then, according to the present disclosure, treatment with each of escin, 27-deoxyactein, lysionotin, nitidine chloride, lanosterol, engeletin, specnuezhenide, praeruptorin B, rotundic acid, sesamoside, polygalacin D, momordin Ic, valechlorine, tussilagone, periplocin, polyphyllin VII and platycodin D2 was carried out as shown in the following Table 1. After culturing for 24 hours, a luciferase assay system (Promega) was used to perform reporter analysis. The analysis was carried out by the test method provided by the production company, and luminescence was determined by using Victor multiwall plate reader (PerkinElmer, USA). To determine cytotoxicity caused by the treatment, development of fluorescence of GFP as an internal control was determined. The luminescence value derived from the reaction with luciferase was divided by the GFP fluorescence value, and the values of the test group were calculated by taking the value of the non-treated control as 100% and expressed in the unit of percentage (%) (Table 1).

[2] = test system: B-16 mouse melanoma cells; experiment: Determination of effect of producing melanin; assay type: cell-based; settings: B-16 melanoma cells; for Melanin synthesis (%): non-treated control = 100%
Method: In this test, the compounds in Test Example 1 showing an effect of enhancing the Wnt signaling were added to the culture medium of mouse-derived melanoma cells (B-16 mouse melanoma cells) to determine the effect of producing melanin in a cellular level (Lotan R., Lotan D. Cancer Res. 40: 3345-3350, 1980). Before the test, B-16 melanoma cells were evaluated in terms of toxicity, and the non-toxic concentration was selected to carry out evaluation of melanin production. B-16 melanoma cells were subcultured in DMEM (Gibco BRL., Gaithersburg, MD, USA) containing 10% FBS. Then, seeding to a 100 mm cell culture dish was performed to synthesize and extract melanin, and the cells were treated with each compound when the confluency was 70%. The compound was used for treating the cell culture at a concentration of 10 μg/mL. In addition, α-melanocyte stimulating hormone (α-MSH) was used as control, added to the culture medium to 10 nM to treat B-16 melanoma cells, and cultured for 48 hours. Then, the cells were treated with trypsin to strip them off the culture container, and centrifugal separation was carried out to extract melanin. After that, 1 mL of sodium hydroxide (1 N concentration) solution was added to the stripped cells and the mixture was boiled for 10 minutes so that melanin may be dissolved. The amount of melanin production was determined by measuring the absorbance at 400 nm by using a spectrophotometer. The amount of melanin was quantified in the unit of μg/mL by using a standard absorbance curve as a function of melanin concentration. The value of the non-treated control was taken as 100%, and the values of the test group were calculated as a percentage (%) on the basis thereof (Table 2).

Compound	Wnt signaling activation capability (%) (Luminescence/GFP) [1]	Melanin synthesis (%) ([2]; 10 μg/mL)	Melanin synthesis (%) ([2]; 10 nM, 48 hours)	melanin synthesis (FIG. 1) [2]
CC1(C)CC[C@]2(C(=O)O)CC[C@]3(C)C(=CC[C@@H]4[C@@]5(C)CC[C@H](O[C@@H]6O[C@H](C(=O)O)[C@@H](O)[C@H](O[C@@H]7OC[C@@H](O)[C@H](O)[C@H]7O)[C@H]6O)C(C)(C)[C@@H]5CC[C@]43C)[C@@H]2C1 [Momordin Ic, momordin Ic]	370	131		
CC=C1[C@H](O[C@@H]2O[C@H](CO)[C@@H](O)[C@H](O)[C@H]2O)OC=C(C(=O)OC)[C@H]1CC(=O)OC[C@H]1O[C@@H](OCCc2ccc(O)cc2)[C@H](O)[C@@H](O)[C@@H]1O (stereo in doubt) [Specnuezhenide, specnuezhenide]	243	106		
COc1cc2c[n+](C)c3c4cc5c(cc4ccc3c2cc1OC)OCO5 [Nitidine chloride, nitidine chloride]	274	125		
valechlorine	218	139		
C=C1[C@H](OC(=O)/C=C(\C)CC)C[C@@H](C(C)C)[C@@H]2[C@@H]([C@@H](C)OC(C)=O)C(=O)C[C@@H]12 [Tussilagone, tussilagone]	195	136		
CC(C)=CCC[C@@H](C)[C@H]1CC[C@@]2(C)C3=C(CC[C@]12C)[C@@]1(C)CC[C@H](O)C(C)(C)[C@@H]1CC3 [Lanosterol, lanosterol]	194	110		
C[C@@H]1CC[C@]2(C(=O)O)CC[C@]3(C)C(=CC[C@@H]4[C@@]5(C)CC[C@H](O)[C@@](C)(CO)[C@@H]5CC[C@]43C)[C@@H]2[C@]1(C)O [Rotunic acid, rotundic acid]	296	144		
α-melanocyte stimulating hormone (SYSMEHFRWGKPV; ends and bridges not checked; UniProt P01189 138-150, looked up) [α-MSH, α-melanocyte stimulating hormone used as control at 10 nM, reference compound]			135	
escin	1098	154		increase in melanin synthesis
C/C=C(/C)C(=O)O[C@H]1c2c(ccc3ccc(=O)oc23)OC(C)(C)[C@H]1OC(=O)/C(C)=C\C [Praeruptorin B, praeruptorin B]	241	136		
C[C@@H]1O[C@@H](O[C@H]2[C@H](OC(=O)[C@]34CCC(C)(C)C[C@H]3C3=CC[C@@H]5[C@@]6(C)C[C@H](O)[C@H](O[C@@H]7O[C@H](CO)[C@@H](O)[C@H](O)[C@H]7O)[C@@](C)(CO)[C@@H]6CC[C@@]5(C)[C@]3(C)C[C@H]4O)OC[C@H](O)[C@@H]2O)[C@H](O)[C@H](O)[C@H]1O[C@@H]1OC[C@@H](O)[C@H](O[C@@H]2OC[C@](O)(CO)[C@H]2O)[C@H]1O [Polygalacin D, polygalacin D]	292	114		
CO[C@H]1C[C@H](O[C@H]2CC[C@]3(C)[C@H]4CC[C@]5(C)[C@@H](C6=CC(=O)OC6)CC[C@]5(O)[C@@H]4CC[C@]3(O)C2)O[C@H](C)[C@H]1O[C@@H]1O[C@H](CO)[C@@H](O)[C@H](O)[C@H]1O [Periplocin, periplocin]	244	128		
CC1OC(OC2C(=O)c3c(O)cc(O)cc3OC2c2ccc(O)cc2)C(O)C(O)C1O (stereo not drawn) [Engeletin, engeletin]	223	121		
polyphyllin VII	275	127		
COc1ccc(-c2cc(=O)c3c(O)c(OC)c(O)c(OC)c3o2)cc1 [Lysionotin, lysionotin]	196	135		
COC(=O)C1=CO[C@@H](O[C@@H]2O[C@H](CO)[C@@H](O)[C@H](O)[C@H]2O)[C@@H]2[C@@]3(C)O[C@H]3[C@@H](O)[C@]12O [Sesamoside, sesamoside]	275	112		
C[C@@H]1O[C@@H](O[C@H]2[C@H](OC(=O)[C@]34CCC(C)(C)C[C@H]3C3=CC[C@@H]5[C@@]6(C)C[C@H](O)[C@H](O[C@@H]7O[C@H](CO)[C@@H](O)[C@H](O[C@@H]8O[C@H](CO)[C@@H](O)[C@H](O)[C@H]8O)[C@H]7O)C(CO)(CO)[C@@H]6CC[C@@]5(C)[C@]3(C)C[C@H]4O)OC[C@H](O)[C@@H]2O)[C@H](O)[C@H](O)[C@H]1O[C@@H]1OC[C@@H](O)[C@H](O[C@@H]2OC[C@](O)(CO)[C@H]2O)[C@H]1O [Platycodin D2, platycodin D2]	216	119		
CC(=O)O[C@@H]1C[C@@]23C[C@@]24CC[C@H](O[C@@H]2OC[C@@H](O)[C@H](O)[C@H]2O)C(C)(C)[C@@H]4CC[C@H]3[C@]2(C)C[C@@H]3O[C@]4(C[C@@H](C)[C@@H]3[C@@]12C)OC[C@@]1(C)O[C@@H]41 [27-Deoxyactein, 27-deoxyactein]	1717	168		
